Data published in ChEMBL document CHEMBL1201862, “PubChem BioAssay data set” (2004).
Activity calls are given as the source filed them.

Legend:
[1] = biological target: T1, High affinity choline transporter 1 (Homo sapiens, UniProt Q9GZV3); experiment: CHT inhibitors, dose response, cell-based, 5-point CRC, membrane potential dye (AID 504840); type: functional
T1 sequence (Q9GZV3 whole entry): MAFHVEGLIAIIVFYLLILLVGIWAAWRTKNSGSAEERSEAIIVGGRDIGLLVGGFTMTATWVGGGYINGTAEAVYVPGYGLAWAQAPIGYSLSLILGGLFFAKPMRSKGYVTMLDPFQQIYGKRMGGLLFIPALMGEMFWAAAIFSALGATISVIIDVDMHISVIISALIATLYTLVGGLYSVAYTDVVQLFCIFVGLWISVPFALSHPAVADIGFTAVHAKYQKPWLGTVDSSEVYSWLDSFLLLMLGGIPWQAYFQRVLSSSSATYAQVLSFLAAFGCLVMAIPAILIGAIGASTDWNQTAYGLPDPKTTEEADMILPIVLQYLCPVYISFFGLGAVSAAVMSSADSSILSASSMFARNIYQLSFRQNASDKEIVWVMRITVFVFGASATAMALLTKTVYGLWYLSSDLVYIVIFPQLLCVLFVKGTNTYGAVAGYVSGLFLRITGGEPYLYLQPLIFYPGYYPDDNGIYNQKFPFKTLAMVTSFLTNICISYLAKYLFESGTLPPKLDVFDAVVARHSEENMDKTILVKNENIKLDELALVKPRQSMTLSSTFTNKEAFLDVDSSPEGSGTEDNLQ

[2] = biological target: T1, High affinity choline transporter 1; experiment: CHT inhibitors, dose response, cell-based, 10-point CRC, membrane potential dye (AID 588401); type: functional;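 note: membrane potential dye fluorescence of choline-evoked depolarization via CHT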
[3] = biological target: Heat shock protein HSP 90-alpha (Homo sapiens, UniProt P07900); type: functional, organism-based
Vero = experiment: cells; type: functional, cell-based; conditions: Chlorocebus sabaeus
[4] = Shn3 3'UTR reporter inhibitors, dose response, cell-based, Clone20 osteoblasts, firefly luciferase, cherry-picked (AID 624132); type: functional;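 note: firefly luciferase luminescence from reporter carrying the Shn3 3'UTR in osteoblasts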
[5] = HepG2 cell cytotoxicity, dose response, cytotoxicity control for Shn3 inhibitor project, CellTiter-Glo, cherry-picked (AID 624134); type: functional, cell-based
[6] = control 3'UTR Renilla luciferase suppression, dose response, counter-screen for Shn3 inhibitor project, cell-based, Clone20-Shn3RL, cherry-picked (AID 624133); type: functional
[7] = biological target: Protein disulfide-isomerase (Homo sapiens, UniProt P07237); experiment: PDI inhibitors, insulin aggregation turbidity, dose response, biochemical, absorbance, cherry-picked samples (AID 602350); type: functional
Escherichia coli [8] = experiment: microbe, parasite or virus in culture
Escherichia coli [9] = experiment: microbe, parasite or virus in culture; remark: listed apart in the source
[10] = biological target: ALK tyrosine kinase receptor (Homo sapiens, UniProt Q9UM73); type: functional;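 note: ALK tested as one member of a kinase panel screen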
Wee1-like protein kinase = Wee1-like protein kinase (Homo sapiens, UniProt P30291); experiment: Navigating the Kinome. Panel member name: WEE1; type: functional
[11] = biological target: DNA dC->dU-editing enzyme APOBEC-3G (Homo sapiens, UniProt Q9HC16); experiment: APOBEC3G deaminase inhibitors, SAR follow-up, biochemical, fluorescence, single-stranded DNA substrate (AID 602136); type: functional; conditions: read-out: IC50_Mean
[12] = biological target: DNA dC->dU-editing enzyme APOBEC-3A (Homo sapiens, UniProt P31941); experiment: SAR analysis of small molecule inhibitors of APOBEC3A DNA Deaminase via a fluorescence-based single-stranded DNA deaminase assay.; type: functional; conditions: read-out: IC50_Mean
[13] = biological target: Sphingosine 1-phosphate receptor 2 (Homo sapiens, UniProt O95136); experiment: Late-stage fluorescence-based dose-response cell-based counterscreen assay to identify agonists of the Sphingosine 1-Phosphate Receptor 3 (S1P3): Sphingosine 1-Phosphate Receptor 2 (S1P2) agonist assay.; type: functional
[14] = biological target: Sphingosine 1-phosphate receptor 4 (Homo sapiens, UniProt O95977); experiment: Late-stage fluorescence-based dose-response cell-based counterscreen assay to identify agonists of the Sphingosine 1-Phosphate Receptor 3 (S1P3): Sphingosine 1-Phosphate Receptor 4 (S1P4) agonist assay.; type: functional
[15] = biological target: Melanin-concentrating hormone receptor 1 (Homo sapiens, UniProt Q99705); experiment: Late-stage fluorescence-based counterscreen for antagonists of the G-protein coupled receptor 7 (GPR7): cell-based dose response assay to identify antagonists of the melanin-concentrating hormone receptor 1 (MCHR1) Set 6.; type: functional
[16] = biological target: Neuropeptides B/W receptor type 1 (Homo sapiens, UniProt P48145); experiment: GPR7 antagonist potency, late-stage follow-up, cell-based, fluorescence, dose response, set 6 (AID 588583); type: functional
[17] = biological target: T2, Sentrin-specific protease 8 (Homo sapiens, UniProt Q96LD8); experiment: SENP8 protease inhibitors, SAR follow-up, biochemical, luminescence (AID 504501); type: functional
T2 sequence (Q96LD8 whole entry): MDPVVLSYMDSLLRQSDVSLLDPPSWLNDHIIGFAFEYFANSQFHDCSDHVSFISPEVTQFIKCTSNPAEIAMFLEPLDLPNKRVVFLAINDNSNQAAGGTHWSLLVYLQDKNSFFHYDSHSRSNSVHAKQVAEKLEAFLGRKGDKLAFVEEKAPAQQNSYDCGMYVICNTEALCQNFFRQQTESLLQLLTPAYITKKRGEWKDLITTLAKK

Caspase-3 = biological target: T3, Caspase-3 (Homo sapiens, UniProt P42574); experiment: SAR Analysis of small molecule inhibitors of Sentrin-specific proteases (SENPs) using a Caspase-3 Selectivity assay. [Related pubchem assays (depositor defined):AID2540, AID2599, AID434973, AID489001]; type: functional
T3 sequence (P42574 whole entry): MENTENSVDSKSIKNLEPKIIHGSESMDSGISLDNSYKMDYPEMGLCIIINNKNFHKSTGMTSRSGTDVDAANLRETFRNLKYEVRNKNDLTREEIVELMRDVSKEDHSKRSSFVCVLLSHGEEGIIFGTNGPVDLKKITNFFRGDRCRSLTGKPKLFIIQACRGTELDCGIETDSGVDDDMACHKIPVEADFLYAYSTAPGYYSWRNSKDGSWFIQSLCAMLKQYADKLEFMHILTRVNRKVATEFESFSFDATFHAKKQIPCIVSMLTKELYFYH

[18] = biological target: T4, Sentrin-specific protease 6 (Homo sapiens, UniProt Q9GZR1); experiment: SAR Analysis of small molecule inhibitors of Sentrin-specific protease 6 (SENP6) using a Luminescent assay. [Related pubchem assays (depositor defined):AID2582, AID2599]; type: functional
T4 sequence (Q9GZR1 whole entry): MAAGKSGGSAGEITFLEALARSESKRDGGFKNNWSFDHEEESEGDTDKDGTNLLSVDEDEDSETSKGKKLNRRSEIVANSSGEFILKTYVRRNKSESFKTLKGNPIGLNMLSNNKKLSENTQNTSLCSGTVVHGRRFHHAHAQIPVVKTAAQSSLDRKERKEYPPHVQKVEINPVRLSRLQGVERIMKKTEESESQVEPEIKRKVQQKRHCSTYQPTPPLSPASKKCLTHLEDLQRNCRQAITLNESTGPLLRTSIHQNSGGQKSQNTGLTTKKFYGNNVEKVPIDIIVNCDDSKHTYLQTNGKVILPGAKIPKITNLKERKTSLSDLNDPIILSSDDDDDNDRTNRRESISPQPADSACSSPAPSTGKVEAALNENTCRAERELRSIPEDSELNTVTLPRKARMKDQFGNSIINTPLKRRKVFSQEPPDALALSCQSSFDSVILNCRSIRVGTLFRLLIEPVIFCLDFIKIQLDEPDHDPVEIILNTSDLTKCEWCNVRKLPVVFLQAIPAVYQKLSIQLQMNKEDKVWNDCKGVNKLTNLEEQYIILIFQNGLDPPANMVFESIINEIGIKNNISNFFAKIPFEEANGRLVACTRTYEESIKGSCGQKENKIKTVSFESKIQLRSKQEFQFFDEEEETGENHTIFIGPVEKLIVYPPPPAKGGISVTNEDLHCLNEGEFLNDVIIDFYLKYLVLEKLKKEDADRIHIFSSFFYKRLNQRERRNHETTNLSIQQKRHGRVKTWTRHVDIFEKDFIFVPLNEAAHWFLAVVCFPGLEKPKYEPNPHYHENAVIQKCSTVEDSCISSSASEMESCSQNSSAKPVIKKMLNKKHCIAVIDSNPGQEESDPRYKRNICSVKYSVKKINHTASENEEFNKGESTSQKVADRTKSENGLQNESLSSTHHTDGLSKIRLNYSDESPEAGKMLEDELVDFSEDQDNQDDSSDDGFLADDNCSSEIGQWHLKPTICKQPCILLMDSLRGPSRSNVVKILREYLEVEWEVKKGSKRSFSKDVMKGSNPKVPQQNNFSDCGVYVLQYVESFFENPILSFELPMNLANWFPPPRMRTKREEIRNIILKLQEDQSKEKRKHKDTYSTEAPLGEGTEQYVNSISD

[19] = biological target: T5, Sentrin-specific protease 7 (Homo sapiens, UniProt Q9BQF6); experiment: SENP7 protease inhibitors, SAR follow-up, biochemical, luminescence (AID 504497); type: functional
T5 sequence (Q9BQF6 whole entry): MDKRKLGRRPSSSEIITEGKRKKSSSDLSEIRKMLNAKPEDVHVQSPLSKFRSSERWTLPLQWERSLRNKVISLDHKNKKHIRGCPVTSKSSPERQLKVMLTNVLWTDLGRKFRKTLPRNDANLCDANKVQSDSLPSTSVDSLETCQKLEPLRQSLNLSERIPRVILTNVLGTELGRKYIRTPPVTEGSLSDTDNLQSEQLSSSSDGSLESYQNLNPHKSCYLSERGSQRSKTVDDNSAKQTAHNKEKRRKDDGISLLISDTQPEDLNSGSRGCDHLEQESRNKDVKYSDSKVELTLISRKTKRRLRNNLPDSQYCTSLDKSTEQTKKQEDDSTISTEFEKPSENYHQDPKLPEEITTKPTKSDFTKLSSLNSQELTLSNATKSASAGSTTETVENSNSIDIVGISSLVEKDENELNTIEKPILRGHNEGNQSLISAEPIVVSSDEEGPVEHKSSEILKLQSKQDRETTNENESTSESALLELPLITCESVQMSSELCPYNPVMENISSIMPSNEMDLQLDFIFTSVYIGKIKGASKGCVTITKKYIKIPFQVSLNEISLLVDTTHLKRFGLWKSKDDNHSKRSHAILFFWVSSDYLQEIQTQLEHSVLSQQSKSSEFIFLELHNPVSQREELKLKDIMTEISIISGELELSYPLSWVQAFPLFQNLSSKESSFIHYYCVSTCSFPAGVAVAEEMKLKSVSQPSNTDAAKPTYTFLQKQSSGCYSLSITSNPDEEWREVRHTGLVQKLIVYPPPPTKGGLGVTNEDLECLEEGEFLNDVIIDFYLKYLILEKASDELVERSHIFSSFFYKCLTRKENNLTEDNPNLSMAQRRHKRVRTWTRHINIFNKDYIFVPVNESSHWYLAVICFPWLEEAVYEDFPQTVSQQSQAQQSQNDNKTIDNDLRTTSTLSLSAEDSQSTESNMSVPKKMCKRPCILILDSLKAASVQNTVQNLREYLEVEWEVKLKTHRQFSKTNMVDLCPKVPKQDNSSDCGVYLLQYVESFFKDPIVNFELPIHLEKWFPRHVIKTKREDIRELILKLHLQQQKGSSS

Aurora kinase A = biological target: T6, Aurora kinase A (Homo sapiens, UniProt O14965); type: functional;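 note: value from the Navigating the Kinome kinase panel profiling, panel entry STK6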
T6 sequence (O14965 whole entry): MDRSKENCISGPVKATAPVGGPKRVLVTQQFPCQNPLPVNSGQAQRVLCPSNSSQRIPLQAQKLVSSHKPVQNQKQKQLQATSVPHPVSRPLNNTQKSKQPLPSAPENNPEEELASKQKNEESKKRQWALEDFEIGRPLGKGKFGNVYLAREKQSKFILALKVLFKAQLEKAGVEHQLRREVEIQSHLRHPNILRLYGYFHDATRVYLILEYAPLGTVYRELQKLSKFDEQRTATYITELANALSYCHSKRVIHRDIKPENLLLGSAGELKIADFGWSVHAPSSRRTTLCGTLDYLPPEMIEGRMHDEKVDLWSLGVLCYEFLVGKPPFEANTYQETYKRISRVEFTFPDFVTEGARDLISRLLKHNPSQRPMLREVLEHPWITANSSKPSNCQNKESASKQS

[20] = biological target: Cell division cycle 7-related protein kinase (Homo sapiens, UniProt O00311); type: functional;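 note: value obtained from a kinome-wide kinase panel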
Aurora kinase B = Aurora kinase B (Homo sapiens, UniProt Q96GD4); type: functional
Aurora kinase B, sequence (Q96GD4 whole entry): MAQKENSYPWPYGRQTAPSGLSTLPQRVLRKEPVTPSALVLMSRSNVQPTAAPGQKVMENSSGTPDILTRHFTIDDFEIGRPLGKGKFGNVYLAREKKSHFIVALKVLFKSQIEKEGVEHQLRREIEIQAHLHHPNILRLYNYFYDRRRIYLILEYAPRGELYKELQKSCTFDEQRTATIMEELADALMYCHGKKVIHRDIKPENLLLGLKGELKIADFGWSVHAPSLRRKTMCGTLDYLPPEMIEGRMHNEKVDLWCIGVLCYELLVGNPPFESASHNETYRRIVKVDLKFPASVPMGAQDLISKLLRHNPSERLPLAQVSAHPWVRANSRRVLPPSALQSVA

Sphingosine 1-phosphate receptor 4, sequence (O95977 whole entry): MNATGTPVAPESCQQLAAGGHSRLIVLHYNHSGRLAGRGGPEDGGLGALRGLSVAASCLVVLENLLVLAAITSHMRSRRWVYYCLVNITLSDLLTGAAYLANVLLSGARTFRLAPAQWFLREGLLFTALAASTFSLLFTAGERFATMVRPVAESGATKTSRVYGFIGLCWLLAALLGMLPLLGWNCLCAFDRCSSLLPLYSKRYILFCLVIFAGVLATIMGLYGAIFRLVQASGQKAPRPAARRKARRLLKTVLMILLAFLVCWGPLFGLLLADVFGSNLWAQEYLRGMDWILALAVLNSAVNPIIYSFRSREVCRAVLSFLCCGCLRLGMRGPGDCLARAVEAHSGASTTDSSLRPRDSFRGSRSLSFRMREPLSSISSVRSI
Protein disulfide-isomerase, sequence (P07237 whole entry): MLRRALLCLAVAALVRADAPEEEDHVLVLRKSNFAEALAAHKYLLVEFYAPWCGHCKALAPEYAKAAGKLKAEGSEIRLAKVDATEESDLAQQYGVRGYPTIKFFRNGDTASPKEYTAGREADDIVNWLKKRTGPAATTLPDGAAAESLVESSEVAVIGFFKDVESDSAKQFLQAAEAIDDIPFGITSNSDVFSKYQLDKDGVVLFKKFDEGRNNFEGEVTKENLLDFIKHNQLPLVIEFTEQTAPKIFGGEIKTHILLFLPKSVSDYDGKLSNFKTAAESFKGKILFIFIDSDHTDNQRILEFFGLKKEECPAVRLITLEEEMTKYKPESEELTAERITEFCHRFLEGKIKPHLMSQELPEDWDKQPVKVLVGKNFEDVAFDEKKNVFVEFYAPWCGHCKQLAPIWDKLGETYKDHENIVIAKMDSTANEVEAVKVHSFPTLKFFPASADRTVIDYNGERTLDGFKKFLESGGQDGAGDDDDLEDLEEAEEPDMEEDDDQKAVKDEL
Wee1-like protein kinase, sequence (P30291 whole entry): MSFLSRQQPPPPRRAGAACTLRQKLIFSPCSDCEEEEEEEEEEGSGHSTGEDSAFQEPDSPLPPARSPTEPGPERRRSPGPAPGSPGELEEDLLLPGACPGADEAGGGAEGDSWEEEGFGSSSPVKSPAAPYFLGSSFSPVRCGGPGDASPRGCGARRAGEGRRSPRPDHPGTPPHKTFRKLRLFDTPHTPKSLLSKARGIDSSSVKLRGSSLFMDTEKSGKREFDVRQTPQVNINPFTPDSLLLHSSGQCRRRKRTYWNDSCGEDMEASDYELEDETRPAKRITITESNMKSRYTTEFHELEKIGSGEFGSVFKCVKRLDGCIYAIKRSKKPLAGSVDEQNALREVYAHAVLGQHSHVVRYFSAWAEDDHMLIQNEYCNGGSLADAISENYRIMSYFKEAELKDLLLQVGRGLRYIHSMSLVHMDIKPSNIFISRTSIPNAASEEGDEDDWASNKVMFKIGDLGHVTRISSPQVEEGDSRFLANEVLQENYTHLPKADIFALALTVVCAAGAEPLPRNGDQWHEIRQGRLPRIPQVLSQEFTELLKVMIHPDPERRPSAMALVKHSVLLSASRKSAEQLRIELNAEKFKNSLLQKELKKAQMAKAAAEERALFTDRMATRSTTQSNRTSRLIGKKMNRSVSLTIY
Cell division cycle 7-related protein kinase, sequence (O00311 whole entry): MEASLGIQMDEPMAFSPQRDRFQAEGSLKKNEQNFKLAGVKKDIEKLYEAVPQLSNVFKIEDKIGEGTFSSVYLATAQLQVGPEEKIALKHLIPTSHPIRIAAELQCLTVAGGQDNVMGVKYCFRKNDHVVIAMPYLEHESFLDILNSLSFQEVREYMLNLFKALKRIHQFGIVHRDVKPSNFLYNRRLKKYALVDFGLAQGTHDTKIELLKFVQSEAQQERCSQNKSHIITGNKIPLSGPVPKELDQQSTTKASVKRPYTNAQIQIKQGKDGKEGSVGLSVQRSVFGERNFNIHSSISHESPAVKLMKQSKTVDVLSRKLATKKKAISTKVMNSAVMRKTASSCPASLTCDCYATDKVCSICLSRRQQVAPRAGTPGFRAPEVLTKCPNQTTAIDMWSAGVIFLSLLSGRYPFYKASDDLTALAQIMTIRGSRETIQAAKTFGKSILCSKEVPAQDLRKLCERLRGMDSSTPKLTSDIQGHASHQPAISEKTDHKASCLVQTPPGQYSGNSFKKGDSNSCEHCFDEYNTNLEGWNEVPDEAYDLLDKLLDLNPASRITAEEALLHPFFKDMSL
Neuropeptides B/W receptor type 1, sequence (P48145 whole entry): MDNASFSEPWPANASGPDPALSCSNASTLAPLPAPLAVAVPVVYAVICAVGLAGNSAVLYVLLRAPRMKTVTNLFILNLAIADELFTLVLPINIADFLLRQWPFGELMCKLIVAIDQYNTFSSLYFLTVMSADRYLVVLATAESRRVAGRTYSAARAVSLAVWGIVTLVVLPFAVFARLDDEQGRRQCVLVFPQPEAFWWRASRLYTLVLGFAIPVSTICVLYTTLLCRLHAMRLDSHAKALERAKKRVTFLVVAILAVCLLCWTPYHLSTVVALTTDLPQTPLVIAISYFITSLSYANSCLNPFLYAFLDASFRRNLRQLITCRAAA
ALK tyrosine kinase receptor, sequence (Q9UM73 whole entry): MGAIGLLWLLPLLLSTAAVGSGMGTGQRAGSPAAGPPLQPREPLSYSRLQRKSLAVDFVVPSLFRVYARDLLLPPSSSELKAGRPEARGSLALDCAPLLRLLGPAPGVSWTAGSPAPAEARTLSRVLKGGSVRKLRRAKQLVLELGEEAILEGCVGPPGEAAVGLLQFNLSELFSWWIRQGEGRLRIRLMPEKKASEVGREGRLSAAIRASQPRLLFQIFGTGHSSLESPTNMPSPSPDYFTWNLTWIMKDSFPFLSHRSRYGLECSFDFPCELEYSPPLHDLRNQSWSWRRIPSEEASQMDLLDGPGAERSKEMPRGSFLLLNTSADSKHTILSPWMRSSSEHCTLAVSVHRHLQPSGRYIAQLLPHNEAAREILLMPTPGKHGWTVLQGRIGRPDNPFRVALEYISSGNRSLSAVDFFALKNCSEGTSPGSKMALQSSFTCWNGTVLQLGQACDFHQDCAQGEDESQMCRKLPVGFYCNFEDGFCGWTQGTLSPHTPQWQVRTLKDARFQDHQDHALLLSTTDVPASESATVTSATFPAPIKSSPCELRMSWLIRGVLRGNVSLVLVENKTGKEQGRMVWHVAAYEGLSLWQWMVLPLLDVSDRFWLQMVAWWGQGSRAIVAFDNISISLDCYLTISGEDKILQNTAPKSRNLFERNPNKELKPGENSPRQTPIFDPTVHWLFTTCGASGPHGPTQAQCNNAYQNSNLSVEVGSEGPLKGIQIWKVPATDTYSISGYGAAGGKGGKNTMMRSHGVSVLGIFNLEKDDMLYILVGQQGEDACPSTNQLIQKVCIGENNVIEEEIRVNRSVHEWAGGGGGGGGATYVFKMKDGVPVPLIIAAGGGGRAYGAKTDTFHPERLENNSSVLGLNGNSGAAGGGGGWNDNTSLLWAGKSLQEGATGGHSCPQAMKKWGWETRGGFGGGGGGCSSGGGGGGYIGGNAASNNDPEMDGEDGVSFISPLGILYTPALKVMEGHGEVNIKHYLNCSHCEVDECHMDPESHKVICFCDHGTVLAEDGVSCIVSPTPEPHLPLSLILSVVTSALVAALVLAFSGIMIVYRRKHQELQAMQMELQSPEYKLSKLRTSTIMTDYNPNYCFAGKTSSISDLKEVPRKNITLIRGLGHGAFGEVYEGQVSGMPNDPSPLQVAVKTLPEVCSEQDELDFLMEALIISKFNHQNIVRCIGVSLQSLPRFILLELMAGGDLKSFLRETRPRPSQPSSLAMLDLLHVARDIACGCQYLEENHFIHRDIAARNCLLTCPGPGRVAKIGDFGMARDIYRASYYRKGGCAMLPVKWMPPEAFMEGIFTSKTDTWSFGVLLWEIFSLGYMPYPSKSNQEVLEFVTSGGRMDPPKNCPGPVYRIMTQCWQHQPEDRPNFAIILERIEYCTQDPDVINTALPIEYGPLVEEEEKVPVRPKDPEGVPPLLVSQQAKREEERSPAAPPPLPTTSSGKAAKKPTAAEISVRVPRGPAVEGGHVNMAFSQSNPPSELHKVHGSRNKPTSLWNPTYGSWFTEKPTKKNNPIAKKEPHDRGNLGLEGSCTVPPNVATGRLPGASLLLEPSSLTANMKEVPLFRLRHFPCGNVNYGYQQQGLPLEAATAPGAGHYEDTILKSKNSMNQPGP
DNA dC->dU-editing enzyme APOBEC-3A, sequence (P31941 whole entry): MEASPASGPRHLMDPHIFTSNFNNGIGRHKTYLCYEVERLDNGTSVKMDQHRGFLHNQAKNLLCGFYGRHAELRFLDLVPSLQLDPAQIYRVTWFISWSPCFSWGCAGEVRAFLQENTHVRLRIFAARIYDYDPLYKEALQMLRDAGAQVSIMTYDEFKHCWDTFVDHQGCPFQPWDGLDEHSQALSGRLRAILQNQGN
DNA dC->dU-editing enzyme APOBEC-3G, sequence (Q9HC16 whole entry): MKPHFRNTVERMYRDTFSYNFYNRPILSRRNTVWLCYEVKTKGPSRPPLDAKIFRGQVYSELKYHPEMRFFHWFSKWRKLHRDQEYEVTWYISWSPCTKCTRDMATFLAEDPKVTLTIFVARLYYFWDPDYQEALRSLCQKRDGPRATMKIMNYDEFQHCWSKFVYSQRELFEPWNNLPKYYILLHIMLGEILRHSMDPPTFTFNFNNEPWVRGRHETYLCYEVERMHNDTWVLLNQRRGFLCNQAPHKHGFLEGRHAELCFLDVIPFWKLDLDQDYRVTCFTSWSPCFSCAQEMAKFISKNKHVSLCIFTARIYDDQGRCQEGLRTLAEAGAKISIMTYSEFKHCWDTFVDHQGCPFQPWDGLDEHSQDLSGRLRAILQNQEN

CC(CN1CCN(C)CC1)OC(=O)c1ccccc1Cl (stereo not given)
IC50 [1]: 10 µM (active) | IC50 [2]: 4.22 µM (active)

COc1cc2cc(C(=O)N3CC(COS(C)(=O)=O)c4ccc(O)cc43)[nH]c2c(OC)c1OC (stereo not given)
AC50 [3]: 0.708 µM (active) | IC50 (Vero): 8.57 µM (active) | AC50 [4]: < 0.26 µM (active) | AC50 [5]: 0.352 µM (active) | AC50 [6]: < 0.26 µM (active) | AC50 [7]: 18 µM (active) | AC50 (Escherichia coli [8]): 4.26 µM (active) | AC50 (Escherichia coli [9]): 22.8 µM (active)

CCN1CCN(c2ccc(Nc3ncc(C(F)(F)F)c(Nc4ccc5[nH]ncc5c4)n3)cc2)CC1
Ki [10]: 0.0158 µM (active) | Ki (Wee1-like protein kinase): 0.00794 µM (active)

Cn1c(SCC(=O)N(Cc2ccccc2)Cc2ccco2)nnc1-c1ccc(F)cc1
IC50 [11]: > 99 µM (inactive) | IC50 [12]: > 99 µM (inactive)

CC1CCCCC1N(C(=O)c1cc(C2CC2)on1)C1CCCCC1 (stereo not given)
EC50 [13]: > 50 µM (inactive) | EC50 [14]: > 50 µM (inactive)

CCOc1ccccc1Cn1ncc(Cl)c(Oc2ccc(OC)cc2)c1=O
IC50 [15]: ~0.624 µM (active) | IC50 [16]: ~0.624 µM (active)

CC(C)CC(=O)Nc1ccc(-c2nc3cc(Cl)ccc3o2)cc1
IC50 [17]: > 99 µM (inactive) | IC50 (Caspase-3): 51.9 µM (active) | IC50 [18]: > 99 µM (inactive) | IC50 [19]: > 99 µM (inactive)

COc1ccc(Nc2nccc(Nc3ccccc3C(=O)O)n2)cc1O
Ki (Aurora kinase A): 0.02 µM (active) | Ki [20]: 0.000126 µM (active) | Ki (Aurora kinase B): 0.00501 µM (active)
